According to patent US20250340557A1, “PYRIMIDINE DERIVATIVE” (ASKA PHARMACEUTICAL CO., LTD., priority 2022, published 2025):

These molecules were tested against T1, human mPGES-1 (Homo sapiens, UniProt O14684) (assay: Test for mPGES-1 inhibitory activity (microsomal enzyme, PGE2 EIA)). Details: microsomes from COS-1 cells transfected with human mPGES-1 cDNA; substrate PGH2 1 μM; 4° C., 4 minutes; PGE2 measured by EIA; read-out: h mPGES1 IC50.
T1 construct: made in house; host or cells: COS-1 cells (transient transfection; microsomal fraction used as enzyme)
T1 sequence (O14684 1-152): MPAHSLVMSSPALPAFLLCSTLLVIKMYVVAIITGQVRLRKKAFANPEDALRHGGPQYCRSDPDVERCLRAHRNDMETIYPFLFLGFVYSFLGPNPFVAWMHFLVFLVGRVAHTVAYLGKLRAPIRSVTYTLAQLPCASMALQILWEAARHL
Type: biochemical
Procedure, shortened: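 Enzyme source was microsomes from COS-1 cells transiently expressing human mPGES-1, in sodium phosphate pH 7.2 with 2.5 mM GSH, 1 mM EDTA and 2% DMSO final. After a 15 min preincubation with compound at 4 °C, 1 μM PGH2 (final) reacted for 4 min at 4 °C.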

Which IC50 does the source give for O=c1cc(C(F)(F)F)nc(-c2c(C(F)(F)F)ccc(CNC(=O)[C@H]3CC[C@H](OCc4ccc(Cl)cc4F)CC3)c2F)[nH]1 [Example 118, trans-4-[(4-chloro-2-fluorobenzyl)oxy]-N-{2-fluoro-3-[6-oxo-4-(trifluoromethyl)-1,6-dihydropyrimidin-2-yl]-4-(trifluoromethyl)benzyl}cyclohexane-1-carboxamide] here?
Its IC50 is less than 1 nM.

For O=c1cc(C(F)(F)F)nc(-c2c(C(F)(F)F)ccc(CNC(=O)[C@H]3CC[C@H](OCc4cc(F)cc(Cl)c4)CC3)c2F)[nH]1 [Example 119, trans-4-[(3-chloro-5-fluorobenzyl)oxy]-N-{2-fluoro-3-[6-oxo-4-(trifluoromethyl)-1,6-dihydropyrimidin-2-yl]-4-(trifluoromethyl)benzyl}cyclohexane-1-carboxamide], which IC50 is on record?
The IC50 was less than 1 nM.

For Cc1cc(=O)[nH]c(-c2c(C(F)(F)F)ccc(CNC(=O)[C@H]3CC[C@H](OCc4cc(F)cc(F)c4)CC3)c2F)n1 [Example 120, trans-4-[(3,5-difluorobenzyl)oxy]-N-[2-fluoro-3-(4-methyl-6-oxo-1,6-dihydropyrimidin-2-yl)-4-(trifluoromethyl)benzyl]cyclohexane-1-carboxamide], which IC50 is on record?
Its IC50 is 11 nM.

Which IC50 does the source give for Cc1cc(=O)[nH]c(-c2c(C(F)(F)F)ccc(CNC(=O)[C@H]3CC[C@H](OCc4ccc(Cl)cc4F)CC3)c2F)n1 [Example 121, trans-4-[(4-chloro-2-fluorobenzyl)oxy]-N-[2-fluoro-3-(4-methyl-6-oxo-1,6-dihydropyrimidin-2-yl)-4-(trifluoromethyl)benzyl]cyclohexane-1-carboxamide] here?
The IC50 was less than 1 nM.

With Cc1cc(=O)[nH]c(-c2c(C(F)(F)F)ccc(CNC(=O)[C@H]3CC[C@H](OCc4cc(F)cc(Cl)c4)CC3)c2F)n1 [Example 122, trans-4-[(3-chloro-5-fluorobenzyl)oxy]-N-[2-fluoro-3-(4-methyl-6-oxo-1,6-dihydropyrimidin-2-yl)-4-(trifluoromethyl)benzyl]cyclohexane-1-carboxamide] as the molecule, how does the IC50 read?
Its IC50 is less than 1 nM.

For Cc1nc(-c2c(C(F)(F)F)ccc(CNC(=O)[C@H]3CC[C@H](OCc4cccc(Cl)c4)CC3)c2F)[nH]c(=O)c1F [Example 123, trans-4-[(3-chlorobenzyl)oxy]-N-[2-fluoro-3-(5-fluoro-4-methyl-6-oxo-1,6-dihydropyrimidin-2-yl)-4-(trifluoromethyl)benzyl]cyclohexane-1-carboxamide], which IC50 is on record?
The IC50 was less than 1 nM.

CCc1nc(-c2c(C(F)(F)F)ccc(CNC(=O)[C@H]3CC[C@H](OCc4ccccc4Cl)CC3)c2F)[nH]c(=O)c1F [Example 124, trans-4-[(2-chlorobenzyl)oxy]-N-[3-(4-ethyl-5-fluoro-6-oxo-1,6-dihydropyrimidin-2-yl)-2-fluoro-4-(trifluoromethyl)benzyl]cyclohexane-1-carboxamide] was tested. Which IC50 did it give?
Its IC50 is less than 1 nM.

Which IC50 does the source give for CCc1nc(-c2c(C(F)(F)F)ccc(CNC(=O)[C@H]3CC[C@H](OCc4ccc(Cl)cc4)CC3)c2F)[nH]c(=O)c1F [Example 125, trans-4-[(4-chlorobenzyl)oxy]-N-[3-(4-ethyl-5-fluoro-6-oxo-1,6-dihydropyrimidin-2-yl)-2-fluoro-4-(trifluoromethyl)benzyl]cyclohexane-1-carboxamide] here?
The IC50 was 19 nM.

How did the IC50 turn out when Cc1nc(-c2c(C(F)(F)F)ccc(CNC(=O)[C@H]3CC[C@H](OCc4ccc(F)cc4F)CC3)c2F)[nH]c(=O)c1F [Example 126, trans-4-[(2,4-difluorobenzyl)oxy]-N-[2-fluoro-3-(5-fluoro-4-methyl-6-oxo-1,6-dihydropyrimidin-2-yl)-4-(trifluoromethyl)benzyl]cyclohexane-1-carboxamide] was run?
Its IC50 is less than 1 nM.

With Cc1nc(-c2c(C(F)(F)F)ccc(CNC(=O)[C@H]3CC[C@H](OCc4ccc(F)c(F)c4)CC3)c2F)[nH]c(=O)c1F [Example 127, trans-4-[(3,4-difluorobenzyl)oxy]-N-[2-fluoro-3-(5-fluoro-4-methyl-6-oxo-1,6-dihydropyrimidin-2-yl)-4-(trifluoromethyl)benzyl]cyclohexane-1-carboxamide] as the molecule, how does the IC50 read?
The IC50 was less than 1 nM.

How did the IC50 turn out when Cc1nc(-c2c(C(F)(F)F)ccc(CNC(=O)[C@H]3CC[C@H](OCc4ccc(Cl)cc4F)CC3)c2F)[nH]c(=O)c1F [Example 128, trans-4-[(4-chloro-2-fluorobenzyl)oxy]-N-[2-fluoro-3-(5-fluoro-4-methyl-6-oxo-1,6-dihydropyrimidin-2-yl)-4-(trifluoromethyl)benzyl]cyclohexane-1-carboxamide] was run?
The IC50 was 13 nM.

For CCc1cc(=O)[nH]c(-c2c(C(F)(F)F)ccc(CNC(=O)[C@H]3CC[C@H](OCc4ccc(F)cc4F)CC3)c2F)n1 [Example 129, trans-4-[(2,4-difluorobenzyl)oxy]-N-[3-(4-ethyl-6-oxo-1,6-dihydropyrimidin-2-yl)-2-fluoro-4-(trifluoromethyl)benzyl]cyclohexane-1-carboxamide], which IC50 is on record?
The IC50 was 25 nM.

How did the IC50 turn out when Cc1nc(-c2c(C(F)(F)F)ccc(CNC(=O)[C@H]3CC[C@H](OCc4cccc(C(F)(F)F)c4)CC3)c2F)[nH]c(=O)c1F [Example 130, trans-N-[2-fluoro-3-(5-fluoro-4-methyl-6-oxo-1,6-dihydropyrimidin-2-yl)-4-(trifluoromethyl)benzyl]-4-{[3-(trifluoromethyl)benzyl]oxy}cyclohexane-1-carboxamide] was run?
Its IC50 is less than 1 nM.

For Cc1nc(-c2c(C(F)(F)F)ccc(CNC(=O)[C@H]3CC[C@H](OCc4cc(F)cc(Cl)c4)CC3)c2F)[nH]c(=O)c1F [Example 131, trans-4-[(3-chloro-5-fluorobenzyl)oxy]-N-[2-fluoro-3-(5-fluoro-4-methyl-6-oxo-1,6-dihydropyrimidin-2-yl)-4-(trifluoromethyl)benzyl]cyclohexane-1-carboxamide], which IC50 is on record?
The IC50 was less than 1 nM.

With CCc1nc(-c2c(C(F)(F)F)ccc(CNC(=O)[C@H]3CC[C@H](OCc4ccc(F)cc4F)CC3)c2F)[nH]c(=O)c1F [Example 132, trans-4-[(2,4-difluorobenzyl)oxy]-N-[3-(4-ethyl-5-fluoro-6-oxo-1,6-dihydropyrimidin-2-yl)-2-fluoro-4-(trifluoromethyl)benzyl]cyclohexane-1-carboxamide] as the molecule, how does the IC50 read?
The IC50 was 21 nM.

Which IC50 does the source give for CCc1nc(-c2c(C(F)(F)F)ccc(CNC(=O)[C@H]3CC[C@H](OCc4ccc(F)c(F)c4)CC3)c2F)[nH]c(=O)c1F [Example 133, trans-4-[(3,4-difluorobenzyl)oxy]-N-[3-(4-ethyl-5-fluoro-6-oxo-1,6-dihydropyrimidin-2-yl)-2-fluoro-4-(trifluoromethyl)benzyl]cyclohexane-1-carboxamide] here?
The IC50 was 27 nM.

With O=c1cc(C(F)(F)F)nc(-c2c(C(F)(F)F)ccc(CNC(=O)[C@H]3C[C@H](OCc4ccccc4)C3)c2F)[nH]1 [Example 134, trans-3-(benzyloxy)-N-{2-fluoro-3-[6-oxo-4-(trifluoromethyl)-1,6-dihydropyrimidin-2-yl]-4-(trifluoromethyl)benzyl}cyclobutane-1-carboxamide] as the molecule, how does the IC50 read?
The IC50 was less than 10 nM.

With O=c1cc(C(F)(F)F)nc(-c2c(C(F)(F)F)ccc(CNC(=O)[C@H]3C[C@@H](OCc4ccccc4)C3)c2F)[nH]1 [Example 135, cis-3-(benzyloxy)-N-{2-fluoro-3-[6-oxo-4-(trifluoromethyl)-1,6-dihydropyrimidin-2-yl]-4-(trifluoromethyl)benzyl}cyclobutane-1-carboxamide] as the molecule, how does the IC50 read?
Its IC50 is 6.4 nM.

How did the IC50 turn out when O=c1cc(C(F)(F)F)nc(-c2c(C(F)(F)F)ccc(CNC(=O)[C@H]3C[C@H](OCc4ccccc4Cl)C3)c2F)[nH]1 [Example 136, trans-3-[(2-chlorobenzyl)oxy]-N-{2-fluoro-3-[6-oxo-4-(trifluoromethyl)-1,6-dihydropyrimidin-2-yl]-4-(trifluoromethyl)benzyl}cyclobutane-1-carboxamide] was run?
The IC50 was 2 nM.

How did the IC50 turn out when O=c1cc(C(F)(F)F)nc(-c2c(C(F)(F)F)ccc(CNC(=O)[C@H]3C[C@@H](OCc4ccccc4Cl)C3)c2F)[nH]1 [Example 137, cis-3-[(2-chlorobenzyl)oxy]-N-{2-fluoro-3-[6-oxo-4-(trifluoromethyl)-1,6-dihydropyrimidin-2-yl]-4-(trifluoromethyl)benzyl}cyclobutane-1-carboxamide] was run?
The IC50 was 2.9 nM.

With O=c1cc(C(F)(F)F)nc(-c2c(C(F)(F)F)ccc(CNC(=O)[C@H]3C[C@H](OCc4cccc(Cl)c4)C3)c2F)[nH]1 [Example 138, trans-3-[(3-chlorobenzyl)oxy]-N-{2-fluoro-3-[6-oxo-4-(trifluoromethyl)-1,6-dihydropyrimidin-2-yl]-4-(trifluoromethyl)benzyl}cyclobutane-1-carboxamide] as the molecule, how does the IC50 read?
Its IC50 is less than 1 nM.

For O=c1cc(C(F)(F)F)nc(-c2c(C(F)(F)F)ccc(CNC(=O)[C@H]3C[C@H](OCc4ccc(Cl)cc4)C3)c2F)[nH]1 [Example 140, trans-3-[(4-chlorobenzyl)oxy]-N-{2-fluoro-3-[6-oxo-4-(trifluoromethyl)-1,6-dihydropyrimidin-2-yl]-4-(trifluoromethyl)benzyl}cyclobutane-1-carboxamide], which IC50 is on record?
Its IC50 is 1 nM.

How did the IC50 turn out when O=c1cc(C(F)(F)F)nc(-c2c(C(F)(F)F)ccc(CNC(=O)[C@H]3C[C@@H](OCc4ccc(Cl)cc4)C3)c2F)[nH]1 [Example 141, cis-3-[(4-chlorobenzyl)oxy]-N-{2-fluoro-3-[6-oxo-4-(trifluoromethyl)-1,6-dihydropyrimidin-2-yl]-4-(trifluoromethyl)benzyl}cyclobutane-1-carboxamide] was run?
The IC50 was less than 1 nM.

For O=c1cc(C(F)(F)F)nc(-c2c(C(F)(F)F)ccc(CNC(=O)[C@H]3C[C@H](OCc4ccccc4C(F)(F)F)C3)c2F)[nH]1 [Example 142, trans-N-{2-fluoro-3-[6-oxo-4-(trifluoromethyl)-1,6-dihydropyrimidin-2-yl]-4-(trifluoromethyl)benzyl}-3-{[2-(trifluoromethyl)benzyl]oxy}cyclobutane-1-carboxamide], which IC50 is on record?
Its IC50 is less than 1 nM.
